Results on one compound are retold here after ChEMBL document CHEMBL1649348, “Antifungal cyclic peptides from Psammosilene tunicoides” (2010).

In brackets after ≈: the same amount, converted by molar mass. Peptide text beside a SMILES is read from it.

What all share (format): functional
One experiment has as its system Candida tropicalis. In words: Antifungal activity against Candida tropicalis after 24 hrs to 1 week by two fold dilution method.
A further experiment deals with Cryptococcus neoformans. The experiment can be described thus: Antifungal activity against Cryptococcus neoformans BLS108 after 24 hrs to 1 week by two fold dilution method.
In experiment [1] the test system is Candida albicans. The experiment can be described thus: Antifungal activity against Candida albicans SC5314 after 24 hrs to 1 week by two fold dilution method.
Experiment [2] has as its system Candida albicans. The experiment can be described thus: Antifungal activity against Candida albicans Y0109 after 24 hrs to 1 week by two fold dilution method.
The next experiment has as its system Candida parapsilosis. The experiment can be described thus: Antifungal activity against Candida parapsilosis after 24 hrs to 1 week by two fold dilution method. The conditions noted are these: Lodderomyces parapsilosis.

For orientation: MIC80 means an inhibitory concentration at the 80% level, which refers to growth in some studies and to a panel of isolates in others. A low value points to greater potency. Turning to `CC[C@H](C)[C@@H]1NC(=O)[C@H](CC(N)=O)NC(=O)[C@H](C(C)C)NC(=O)CNC(=O)[C@H](Cc2c[nH]cn2)NC(=O)[C@H](Cc2c[nH]c3ccccc23)NC(=O)[C@@H]2CCCN2C(=O)[C@@H]2CCCN2C1=O` [TUNICYCLIN D] (cyclo(GVNIPPWH)), the MIC80 in the experiment on Candida tropicalis was found to be 0.25 mg/L (≈ 0.277 µM); against Cryptococcus neoformans, 1 mg/L (≈ 1.11 µM); against Candida albicans [1], 4 mg/L (≈ 4.44 µM); in the experiment with Candida albicans [2], 16 mg/L (≈ 17.8 µM); in the experiment on Candida parapsilosis, 1 mg/L (≈ 1.11 µM).
